According to PubChem BioAssay AID248 (DTP/NCI, 2004):
Values joined by “and” are separate entries in the source; they are usually repeats but may differ in a detail not shown here. Equal values may be shown once. Inconclusive results and toxic doses are left out. No stated cut-off is given here; in the data, active means T/C of 150% or more; inactive means T/C below 125%.

Tested on: L1210 leukemia ip in BDF1 mice, survival T/C
Test: NCI In Vivo Anticancer Drug Screen. Data for tumor model L1210 Leukemia (intraperitoneal) in B6D2F1 (BDF1) mice
Settings: endpoint: mean survival time, higher = longer survival
Outline: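 Tumor was transplanted into mice, which were then dosed with test compound or vehicle alone. Survival was recorded for each group, and the treated figure was expressed relative to the control figure.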

[1] = dose: 100.0 mg/kg/injection, schedule: Q01DX009 (ip), vehicle: saline with Tween-80
[2] = dose: 100.0 mg/kg/injection, schedule: Q04DX003 (ip), vehicle: saline with Tween-80
[3] = dose: 200.0 mg/kg/injection, schedule: Q01DX009 (ip), vehicle: saline with Tween-80
[4] = dose: 200.0 mg/kg/injection, schedule: Q04DX003 (ip), vehicle: saline with Tween-80
[5] = dose: 400.0 mg/kg/injection, schedule: Q01DX009 (ip), vehicle: saline with Tween-80
[6] = dose: 400.0 mg/kg/injection, schedule: Q04DX003 (ip), vehicle: saline with Tween-80
[7] = dose: 100.0 mg/kg/injection, schedule: Q01DX009 (ip), vehicle: Klucel (hydroxypropylcellulose) (HPC)
[8] = dose: 100.0 mg/kg/injection, schedule: Q04DX002 (ip), vehicle: saline with Tween-80
[9] = dose: 200.0 mg/kg/injection, schedule: Q04DX002 (ip), vehicle: saline with Tween-80
[10] = dose: 400.0 mg/kg/injection, schedule: Q04DX002 (ip), vehicle: saline with Tween-80
[11] = dose: 100.0 mg/kg/injection, schedule: Q01DX001 (ip), vehicle: saline
[12] = dose: 200.0 mg/kg/injection, schedule: Q01DX001 (ip), vehicle: saline
[13] = dose: 400.0 mg/kg/injection, schedule: Q01DX001 (ip), vehicle: saline
[14] = dose: 100.0 mg/kg/injection, schedule: Q04DX003 (ip), vehicle: Klucel (hydroxypropylcellulose) (HPC)

Measured: T/C

Cc1cc([N+](=O)[O-])c2ccccc2c1N(CC(=O)O)S(=O)(=O)c1ccccc1
inactive: [1] 93 % of control | [2] 90 % of control | [3] 99 % of control | [4] 97 % of control | [5] 104 % of control | [6] 89 % of control

OCCOCCOCCN1CCN(C(c2ccccc2)c2ccc(Cl)cc2)CC1 (stereo unspecified)
inactive: dose: 12.5 mg/kg/injection, schedule: Q01DX009 (ip), vehicle: saline 95 % of control | dose: 25.0 mg/kg/injection, schedule: Q01DX009 (ip), vehicle: saline 100 % of control | dose: 50.0 mg/kg/injection, schedule: Q01DX009 (ip), vehicle: saline 101 % of control | dose: 100.0 mg/kg/injection, schedule: Q01DX009 (ip), vehicle: saline 95 % of control | dose: 200.0 mg/kg/injection, schedule: Q01DX009 (ip), vehicle: saline 91 % of control

CC(=O)OCC1OC(n2ncc3c(=S)nc[nH]c32)C(OC(C)=O)C1OC(C)=O (stereo unspecified)
inactive: dose: 12.5 mg/kg/injection, schedule: Q01DX005 (ip), vehicle: other 98 % of control | dose: 25.0 mg/kg/injection, schedule: Q01DX005 (ip), vehicle: other 95 % of control | dose: 50.0 mg/kg/injection, schedule: Q01DX005 (ip), vehicle: other 104 % of control | dose: 100.0 mg/kg/injection, schedule: Q01DX005 (ip), vehicle: other 97 % of control | dose: 200.0 mg/kg/injection, schedule: Q01DX005 (ip), vehicle: other 93 % of control

CC(C(O)c1ccccc1)[n+]1ccccc1 (stereo unspecified)
inactive: dose: 75.0 mg/kg/injection, schedule: Q01DX001 (ip), vehicle: saline 102 % of control

O=C1SC(c2ccccc2)(c2ccccc2)c2cscc21
inactive: dose: 50.0 mg/kg/injection, schedule: Q01DX009 (ip), vehicle: saline with Tween-80 86 % of control | [1] 86 % of control

Cc1cc(C)n(/N=C/c2ccc(N(C)C)cc2)c(=O)c1C#N
inactive: dose: 100.0 mg/kg/injection, schedule: Q04DX003 (ip), vehicle: saline 95 % of control | dose: 200.0 mg/kg/injection, schedule: Q04DX003 (ip), vehicle: saline 95 % of control | dose: 400.0 mg/kg/injection, schedule: Q04DX003 (ip), vehicle: saline 95 % of control

Nc1ncnc(Nc2ccc([N+](=O)[O-])cc2)c1[N+](=O)[O-]
inactive: [7] 97 % of control | dose: 200.0 mg/kg/injection, schedule: Q01DX009 (ip), vehicle: Klucel (hydroxypropylcellulose) (HPC) 92 % of control | dose: 400.0 mg/kg/injection, schedule: Q01DX009 (ip), vehicle: Klucel (hydroxypropylcellulose) (HPC) 96 % of control

CC(CCl)OP(=O)(Cc1ccccc1)OC(C)CCl (stereo unspecified)
inactive: [8] 91 % of control | [9] 98 % of control | [10] 98 % of control

CCn1c2ccccc2c2cc(N=Cc3ccc(N(CCCl)CCCl)cc3C)ccc21
inactive: dose: 50.0 mg/kg/injection, schedule: Q01DX001 (ip), vehicle: carboxymethylcellulose (CMC) 103 % of control | dose: 100.0 mg/kg/injection, schedule: Q01DX001 (ip), vehicle: carboxymethylcellulose (CMC) 103 % of control | dose: 200.0 mg/kg/injection, schedule: Q01DX001 (ip), vehicle: carboxymethylcellulose (CMC) 117 % of control | dose: 400.0 mg/kg/injection, schedule: Q01DX001 (ip), vehicle: carboxymethylcellulose (CMC) 100 % of control

CC1(C)OCC(C2OC3OC(c4ccccc4)=NC3C2O)O1 (stereo unspecified)
inactive: dose: 100.0 mg/kg/injection, schedule: Q01DX001 (ip), vehicle: Klucel (hydroxypropylcellulose) (HPC) 96 % of control | dose: 200.0 mg/kg/injection, schedule: Q01DX001 (ip), vehicle: Klucel (hydroxypropylcellulose) (HPC) 104 % of control | dose: 400.0 mg/kg/injection, schedule: Q01DX001 (ip), vehicle: Klucel (hydroxypropylcellulose) (HPC) 101 % of control

Cc1ccc(Cl)cc1NC(=O)NCc1cccnc1
inactive: dose: 100.0 mg/kg/injection, schedule: Q01DX001 (ip), vehicle: saline with Tween-80 93 % of control | [1] 103 % of control and 91 % of control | [8] 106 % of control and 88 % of control | [2] 107 % of control | dose: 200.0 mg/kg/injection, schedule: Q01DX001 (ip), vehicle: saline with Tween-80 90 % of control | [3] 104 % of control and 92 % of control | [9] 95 % of control and 89 % of control | [4] 100 % of control | dose: 400.0 mg/kg/injection, schedule: Q01DX001 (ip), vehicle: saline with Tween-80 90 % of control | [5] 96 % of control and 113 % of control | [10] 95 % of control and 91 % of control | [6] 103 % of control

O=C(Nc1ccc(C(=O)c2ccccc2)cc1)Nc1ccc(C(=O)c2ccccc2)cc1
inactive: dose: 20.0 mg/kg/injection, schedule: Q01DX009 (ip), vehicle: saline with Tween-80 95 % of control | dose: 40.0 mg/kg/injection, schedule: Q01DX009 (ip), vehicle: saline with Tween-80 87 % of control | dose: 80.0 mg/kg/injection, schedule: Q01DX009 (ip), vehicle: saline with Tween-80 90 % of control | dose: 160.0 mg/kg/injection, schedule: Q01DX009 (ip), vehicle: saline with Tween-80 91 % of control | dose: 320.0 mg/kg/injection, schedule: Q01DX009 (ip), vehicle: saline with Tween-80 93 % of control

CCCCCCN(CCCCCC)CCCCCC
inactive: dose: 8.0 mg/kg/injection, schedule: Q01DX015 (ip), vehicle: carboxymethylcellulose (CMC) 97 % of control | dose: 16.0 mg/kg/injection, schedule: Q01DX015 (ip), vehicle: carboxymethylcellulose (CMC) 100 % of control | dose: 32.0 mg/kg/injection, schedule: Q01DX015 (ip), vehicle: carboxymethylcellulose (CMC) 102 % of control | dose: 64.0 mg/kg/injection, schedule: Q01DX015 (ip), vehicle: carboxymethylcellulose (CMC) 96 % of control | [11] 97 % of control | dose: 128.0 mg/kg/injection, schedule: Q01DX015 (ip), vehicle: carboxymethylcellulose (CMC) 97 % of control | [12] 106 % of control | [13] 100 % of control

Cc1c(-c2ccccc2)sc(/N=C/c2ccc(Cl)c(Cl)c2)c1C#N
inactive: [1] 103 % of control and 104 % of control | [8] 96 % of control and 101 % of control | [3] 103 % of control and 108 % of control | [9] 97 % of control and 104 % of control | [5] 93 % of control and 97 % of control | [10] 104 % of control and 115 % of control

CCOC(=O)NP(=O)(Nc1ccccc1)Nc1ccccc1
inactive: dose: 50.0 mg/kg/injection, schedule: Q01DX001 (ip), vehicle: alcohol 104 % of control | dose: 100.0 mg/kg/injection, schedule: Q01DX001 (ip), vehicle: alcohol 98 % of control | dose: 200.0 mg/kg/injection, schedule: Q01DX001 (ip), vehicle: alcohol 102 % of control | dose: 400.0 mg/kg/injection, schedule: Q01DX001 (ip), vehicle: alcohol 104 % of control

CCOC(=O)/C(O)=C\c1nc(OCC)nc(OCC)c1[N+](=O)[O-]
inactive: dose: 93.8 mg/kg/injection, schedule: Q04DX002 (ip), vehicle: Klucel (hydroxypropylcellulose) (HPC) 95 % of control | dose: 187.5 mg/kg/injection, schedule: Q04DX002 (ip), vehicle: Klucel (hydroxypropylcellulose) (HPC) 95 % of control | dose: 375.0 mg/kg/injection, schedule: Q04DX002 (ip), vehicle: Klucel (hydroxypropylcellulose) (HPC) 100 % of control

CNC(=O)Oc1ccc(C(=O)OC)cc1
inactive: [11] 93 % of control | [12] 90 % of control | [13] 122 % of control

CCN(CC)CCCC(C)Nc1ccnc(/C=C/c2ccc(Br)cc2)c1 (stereo unspecified)
inactive: dose: 25.0 mg/kg/injection, schedule: Q01DX009 (ip), vehicle: Klucel (hydroxypropylcellulose) (HPC) 98 % of control | dose: 25.0 mg/kg/injection, schedule: Q04DX003 (ip), vehicle: Klucel (hydroxypropylcellulose) (HPC) 108 % of control | dose: 50.0 mg/kg/injection, schedule: Q01DX009 (ip), vehicle: Klucel (hydroxypropylcellulose) (HPC) 106 % of control | dose: 50.0 mg/kg/injection, schedule: Q04DX003 (ip), vehicle: Klucel (hydroxypropylcellulose) (HPC) 108 % of control and 88 % of control | [11] 93 % of control | [7] 97 % of control | [14] 97 % of control

NC(=O)C1CCCCC1C(N)=O (stereo unspecified)
inactive: [2] 96 % of control | [4] 102 % of control | [6] 96 % of control

Cc1cn(C2CC(OS(C)(=O)=O)C(CO)O2)c(=O)[nH]c1=O (stereo unspecified)
inactive: dose: 100.0 mg/kg/injection, schedule: Q01DX005 (ip), vehicle: saline 102 % of control | dose: 200.0 mg/kg/injection, schedule: Q01DX005 (ip), vehicle: saline 104 % of control

CC1(C)OC2C(COC(=O)Oc3ccccc3)OC(n3cnc4c(=S)nc[nH]c43)C2O1 (stereo unspecified)
inactive: [1] 117 % of control | [14] 100 % of control | dose: 200.0 mg/kg/injection, schedule: Q04DX003 (ip), vehicle: Klucel (hydroxypropylcellulose) (HPC) 109 % of control
